Among the data in patent US20050032873A1, “3-Amino chroman and 2-amino tetralin derivatives” (Wyeth, priority 2003, published 2005) are melting point values, retold here.

SMILES strings stand for the structures. Counter-ions that a name gives are not always drawn.

In the case of `CCCN(CCCc1c[nH]c2ccc(F)cc12)C1COc2c(C(N)=O)ccc(F)c2C1` (stereo not shown) (as salt: hydrochloride) [Compound 120, 5-fluoro-3-[[3-(5-fluoro-1H-indol-3-yl)propyl](propyl)amino]chromane-8-carboxamide], the melting point was 123 °C (dec.).

As for `NC(=O)c1ccc(F)c2c1OCC(N(CCCc1c[nH]c3ccc(F)cc13)CC1CC1)C2` (stereo not shown) (as salt: hydrochloride) [Compound 121, 3-{(cyclopropylmethyl)[3-(5-fluoro-1H-indol-3-yl)propyl]amino}-5-fluorochromane-8-carboxamide], the melting point is 123 °C (dec.).

Regarding `NC(=O)c1ccc(F)c2c1OCC(N(CCCc1c[nH]c3ccc(F)cc13)C1CCC1)C2` (stereo not shown) (as salt: hydrochloride) [Compound 122, 3-{cyclobutyl[3-(5-fluoro-1H-indol-3-yl)propyl]amino}-5-fluorochromane-8-carboxamide], the melting point was 132 °C (dec.).

As for `NC(=O)c1ccc(F)c2c1OCC(NCCCCc1c[nH]c3ccc(F)cc13)C2` (stereo not shown) (as salt: hydrochloride) [Compound 123, 5-fluoro-3-{[4-(5-fluoro-1H-indol-3-yl)butyl]amino}chromane-8-carboxamide], the melting point was 119 °C (dec.).

Consider `CCCN(CCCCc1c[nH]c2ccc(F)cc12)C1COc2c(C(N)=O)ccc(F)c2C1` (stereo not shown) (as salt: hydrochloride) [Compound 124, 5-fluoro-3-[[4-(5-fluoro-1H-indol-3-yl)butyl](propyl)amino]chromane-8-carboxamide], for which the melting point is 116 °C (dec.).

`NC(=O)c1ccc(F)c2c1OCC(N(CCCCc1c[nH]c3ccc(F)cc13)CC1CC1)C2` (stereo not shown) (as salt: hydrochloride) [Compound 125, 3-{(cyclopropylmethyl)[4-(5-fluoro-1H-indol-3-yl)butyl]amino}-5-fluorochromane-8-carboxamide]: the melting point is 116 °C (dec.).

Regarding `NC(=O)c1ccc(F)c2c1OCC(N(CCCCc1c[nH]c3ccc(F)cc13)C1CCC1)C2` (stereo not shown) (as salt: hydrochloride) [Compound 126, 3-{cyclobutyl[4-(5-fluoro-1H-indol-3-yl)butyl]amino}-5-fluorochromane-8-carboxamide], the melting point is 130 °C (dec.).

On to `CCN(CCCCc1c[nH]c2ccc(F)cc12)C1COc2c(C(N)=O)ccc(F)c2C1` (stereo not shown) (as salt: hydrochloride) [Compound 127, 3-{ethyl[4-(5-fluoro-1H-indol-3-yl)butyl]amino}-5-fluorochromane-8-carboxamide], for which the melting point is 112 °C (dec.).

As to `NC(=O)c1ccc(F)c2c1OCC(NCCCc1c[nH]c3c(F)cc(F)cc13)C2` (stereo not shown) (as salt: hydrochloride) [Compound 128, 3-{[3-(5,7-difluoro-1H-indol-3-yl)propyl]amino}-5-fluorochromane-8-carboxamide], the melting point is 149 °C (dec.).

On to `CCCN(CCCc1c[nH]c2c(F)cc(F)cc12)C1COc2c(C(N)=O)ccc(F)c2C1` (stereo not shown) (as salt: hydrochloride) [Compound 129, 3-[[3-(5,7-difluoro-1H-indol-3-yl)propyl](propyl)amino]-5-fluorochromane-8-carboxamide], for which the melting point is 130 °C (dec.).

Regarding `NC(=O)c1ccc(F)c2c1OCC(N(CCCc1c[nH]c3c(F)cc(F)cc13)CC1CC1)C2` (stereo not shown) (as salt: hydrochloride) [Compound 130, 3-{(cyclopropylmethyl)[3-(5,7-difluoro-1H-indol-3-yl)propyl]amino}-5-fluorochromane-8-carboxamide], the melting point was 124 °C (dec.).

As to `NC(=O)c1ccc(F)c2c1OCC(N(CCCc1c[nH]c3c(F)cc(F)cc13)C1CCC1)C2` (stereo not shown) (as salt: hydrochloride) [Compound 131, 3-{cyclobutyl[3-(5,7-difluoro-1H-indol-3-yl)propyl]amino}-5-fluorochromane-8-carboxamide], the melting point is 136 °C (dec.).

Regarding `CCN(CCCc1c[nH]c2c(F)cc(F)cc12)C1COc2c(C(N)=O)ccc(F)c2C1` (stereo not shown) (as salt: hydrochloride) [Compound 132, 3-[[3-(5,7-difluoro-1H-indol-3-yl)propyl](ethyl)amino]-5-fluorochromane-8-carboxamide], the melting point is 125 °C (dec.).

On to `CNC(=O)c1ccc(F)c2c1C[C@H](N(CCCCc1c[nH]c3ccc(F)cc13)C1CCC1)CO2` (as salt: hydrochloride) [Compound 145a, (3S)-3-{cyclobutyl[4-(5-fluoro-1H-indol-3-yl)butyl]amino}-8-fluoro-N-methylchromane-5-carboxamide], for which the melting point was 125 °C (dec.).

As to `CNC(=O)c1ccc(F)c2c1C[C@@H](N(CCCCc1c[nH]c3ccc(F)cc13)C1CCC1)CO2` (as salt: hydrochloride) [Compound 145b, (3R)-3-{cyclobutyl[4-(5-fluoro-1H-indol-3-yl)butyl]amino}-8-fluoro-N-methylchromane-5-carboxamide], the melting point is 125 °C (dec.).

Compound `NC(=O)c1ccc(F)c2c1C[C@@H](N(CCCc1c[nH]c3c(F)cc(F)cc13)CC1CC1)CO2` (as salt: hydrochloride) [Compound 147, (3R)-3-{(cyclopropylmethyl)[3-(5,7-difluoro-1H-indol-3-yl)propyl]amino}-8-fluorochromane-5-carboxamide] displayed a melting point of 147 to 151 °C.

For `C[C@H](CCN(C1CCC1)[C@H]1COc2c(F)ccc(C(N)=O)c2C1)c1c[nH]c2ccc(F)cc12` (as salt: hydrochloride) [Compound 152a, (3R)-3-{cyclobutyl[(3R)-3-(5-fluoro-1H-indol-3-yl)butyl]amino}-8-fluorochromane-5-carboxamide], the melting point is 168 to 174 °C (dec.).

Take `C[C@@H](CCN(C1CCC1)[C@H]1COc2c(F)ccc(C(N)=O)c2C1)c1c[nH]c2ccc(F)cc12` (as salt: hydrochloride) [Compound 153a, (3R)-3-{cyclobutyl[(3S)-3-(5-fluoro-1H-indol-3-yl)butyl]amino}-8-fluorochromane-5-carboxamide]: the melting point was 160 to 168 °C (dec.).

`C[C@@H](CCN(C1CCC1)[C@@H]1COc2c(F)ccc(C(N)=O)c2C1)c1c[nH]c2ccc(F)cc12` (as salt: hydrochloride) [Compound 153b, (3S)-3-{cyclobutyl[(3S)-3-(5-fluoro-1H-indol-3-yl)butyl]amino}-8-fluorochromane-5-carboxamide] showed a melting point of 162 to 168 °C.

Compound `CCN(CCc1coc2c(OC)cccc12)C1COc2c(F)ccc(C(N)=O)c2C1` (stereo not shown) (as salt: hydrochloride) [Compound 157, 3-{ethyl[2-(7-methoxy-1-benzofuran-3-yl)ethyl]amino}-8-fluorochromane-5-carboxamide] came in with a melting point of 124 to 132 °C.

`CCCN(CCc1coc2c(OC)cccc12)C1COc2c(F)ccc(C(N)=O)c2C1` (stereo not shown) (as salt: hydrochloride) [Compound 158, 8-fluoro-3-[[2-(7-methoxy-1-benzofuran-3-yl)ethyl](propyl)amino]chromane-5-carboxamide] showed a melting point of 125 to 132 °C.

Take `COc1cccc2c(CCN(C3CCC3)C3COc4c(F)ccc(C(N)=O)c4C3)coc12` (stereo not shown) (as salt: hydrochloride) [Compound 159, 3-{cyclobutyl[2-(7-methoxy-1-benzofuran-3-yl)ethyl]amino}-8-fluorochromane-5-carboxamide]: the melting point was 135 to 145 °C (dec.).
